{
  "source": "patent US9259390B2",
  "about": "“Parenteral and oral formulations of benzimidazoles” (priority 2003, dated 2016)",
  "key": {"H1299 cells": {"test_system": "H1299 cells", "experiment": "Cell growth inhibition in NSCLC cells", "format": "cell-based", "details": "Homo sapiens, NCI-H1299, NSCLC cells; MZ from two microemulsion formulations"}, "[1]": {"details": "33 days"}, "SRB1": {"test_system": "SRB1", "experiment": "Cell growth inhibition in skin cancer cells", "format": "cell-based"}, "A375": {"test_system": "A375", "experiment": "Cell growth inhibition in skin cancer cells", "format": "cell-based", "details": "Homo sapiens, A-375"}, "2237": {"test_system": "2237", "experiment": "Cell growth inhibition in skin cancer cells", "format": "cell-based"}, "[2]": {"experiment": "In vitro MZ release, USP Dissolution Apparatus 2", "format": "physicochemical", "details": "for Cumulative MZ Released: individual determinations", "protocol": "All four formulations were filled manually with a syringe into a hydrophilic airfill soft gelatin capsule (R. P. Scherer, Basking Ridge, N.J.) and the resulting hole was sealed thermally. […] C. Cremphor RH 40 was used to maintain the sink condition of the releasing medium. The release medium was constantly stirred at 50 rpm by a Teflon-coated dissolution paddle. Serial release samples were withdrawn and filtered through a 0.45 μm Millipore filter and analyzed by the HPLC assay."}},
  "note": "Where “and” joins values, the source holds several entries; their conditions need not be identical. Identical values can stand only once.",
  "data": [
    {"smiles": "COC(=O)Nc1nc2ccc(C(=O)c3ccccc3)cc2[nH]1", "note": "[MZ, methyl 5-benzoylbenzimidazole-2-carbamate]", "values": [
      {"measurement": "IC50", "setting": "H1299 cells", "result": 0.008, "unit": "mg/L"},
      {"measurement": "logP", "setting": "physchem", "result": 2.51},
      {"measurement": "pH-stability", "setting": "[1]", "result": "sufficiently stable"},
      {"measurement": "IC50", "setting": "SRB1", "result": 0.091, "unit": "mg/L"},
      {"measurement": "IC50", "setting": "A375", "result": 0.129, "unit": "mg/L"},
      {"measurement": "IC50", "setting": "2237", "result": 0.171, "unit": "mg/L"},
      {"measurement": "Cumulative MZ Released, Mean", "setting": "[2]; 10 min", "result": 0.04, "unit": "% Dose"},
      {"measurement": "Cumulative MZ Released", "setting": "[2]; 10 min, listed as MZ powder", "result": "0.01 % Dose and 0.012 % Dose and 0.083 % Dose"},
      {"measurement": "Cumulative MZ Released, Mean", "setting": "[2]; 20 min", "result": 0.15, "unit": "% Dose"},
      {"measurement": "Cumulative MZ Released", "setting": "[2]; 20 min, listed as MZ powder", "result": "0.035 % Dose and 0.22 % Dose and 0.18 % Dose"},
      {"measurement": "Cumulative MZ Released, Mean", "setting": "[2]; 30 min", "result": 0.22, "unit": "% Dose"},
      {"measurement": "Cumulative MZ Released", "setting": "[2]; 30 min, listed as MZ powder", "result": "0.14 % Dose and 0.25 % Dose and 0.28 % Dose"},
      {"measurement": "Cumulative MZ Released, Mean", "setting": "[2]; 40 min", "result": 0.29, "unit": "% Dose"},
      {"measurement": "Cumulative MZ Released", "setting": "[2]; 40 min, listed as MZ powder", "result": "0.22 % Dose and 0.23 % Dose and 0.41 % Dose"},
      {"measurement": "Cumulative MZ Released, Mean", "setting": "[2]; 50 min", "result": 0.29, "unit": "% Dose"},
      {"measurement": "Cumulative MZ Released", "setting": "[2]; 50 min, listed as MZ powder", "result": "0.2 % Dose and 0.31 % Dose and 0.35 % Dose"},
      {"measurement": "Cumulative MZ Released", "setting": "[2]; 60 min, listed as MZ powder", "result": "0.27 % Dose (2×) and 0.32 % Dose"},
      {"measurement": "Cumulative MZ Released, Mean", "setting": "[2]; 60 min, listed as MZ powder", "result": 0.29, "unit": "% Dose"},
      {"measurement": "Cumulative MZ Released, Mean", "setting": "[2]; 60 min, listed as unformulated drug powder", "result": 0.3, "unit": "% Dose"}
    ]}
  ]
}
